Results reported in patent US20240150321A1, “PYRAZOLYLSULFONAMIDE COMPOUNDS AND THEIR USE IN THERAPY” (HOTSPOT THERAPEUTICS, INC., priority 2022, published 2024).
pIC50: −log10 of the molar value. Like-named read-outs stand apart in the source and are kept apart here.

Legend:
Avi-tagged FL MALT-1 = Avi-tagged FL MALT-1 (Homo sapiens (Human), UniProt Q9UDY8); test: MALT-1 Fluorogenic Peptide Cleavage Assay (MALT1 inhibition assay); assay type: biochemical; settings: Ac-LRSR-AMC peptide substrate, 30 min pre-incubation, 90 min reaction at room temperature
Sequence of Avi-tagged FL MALT-1 (Q9UDY8 whole entry): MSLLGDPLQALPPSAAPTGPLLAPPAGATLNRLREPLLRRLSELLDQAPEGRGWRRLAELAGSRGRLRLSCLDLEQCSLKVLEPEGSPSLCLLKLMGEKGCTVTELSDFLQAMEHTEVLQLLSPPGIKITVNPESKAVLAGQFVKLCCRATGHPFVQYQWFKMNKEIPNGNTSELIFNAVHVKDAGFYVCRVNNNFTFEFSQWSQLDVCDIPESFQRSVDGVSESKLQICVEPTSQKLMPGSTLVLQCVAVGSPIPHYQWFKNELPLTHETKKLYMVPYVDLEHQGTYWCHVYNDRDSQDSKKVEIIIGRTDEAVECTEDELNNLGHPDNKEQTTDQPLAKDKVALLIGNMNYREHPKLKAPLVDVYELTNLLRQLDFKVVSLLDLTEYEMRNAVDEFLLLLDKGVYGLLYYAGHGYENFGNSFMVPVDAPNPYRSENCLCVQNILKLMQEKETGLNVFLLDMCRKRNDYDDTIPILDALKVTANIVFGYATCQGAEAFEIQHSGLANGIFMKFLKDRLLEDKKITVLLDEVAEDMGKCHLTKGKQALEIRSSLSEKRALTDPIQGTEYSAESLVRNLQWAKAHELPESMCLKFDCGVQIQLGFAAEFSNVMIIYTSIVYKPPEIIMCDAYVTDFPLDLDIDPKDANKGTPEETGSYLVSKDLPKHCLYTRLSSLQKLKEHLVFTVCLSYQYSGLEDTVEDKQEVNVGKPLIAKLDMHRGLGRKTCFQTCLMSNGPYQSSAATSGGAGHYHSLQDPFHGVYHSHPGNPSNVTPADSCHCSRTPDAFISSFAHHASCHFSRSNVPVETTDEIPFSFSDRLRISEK
How it was run: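 Cleavage of Ac-LRSR-AMC, read as fluorescence at 342/441 nm after 90 min at room temperature, with substrate working stocks of 50 μM (Km) or 280 μM (10×Km). Enzyme, Avi-tagged full-length MALT-1 (40 nM stock), was first pre-incubated 30 min with compound in citrate/HEPES pH 6.89 buffer with TCEP, EDTA, CHAPS and 2% DMSO; IC50 fitted from normalised % inhibition.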

[1] = system: NF-kB reporter in Jurkat cells; test: NF-kB reporter assay in Jurkat cells stimulated with aCD3/aCD28/PMA; assay type: cell-based; settings: Homo sapiens, read-out: NF-kB Reporter Assay IC50
How it was run: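 Luminescence (One-Glo) from the NF-kB reporter yielded IC50 values. Stimulation lasted 4 h at 37° C with aCD3, aCD28 and PMA (final 5, 5 and 0.03 […]), after 1 h compound pre-exposure of 25,000 Jurkat cells per well in serum-free RPMI.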

[2] = Jurkat cells, 1 hr compound pre-incubation, aCD3/aCD28/PMA stimulation 4 hr, One-Glo readout

Structure (SMILES)	pIC50 (Avi-tagged FL MALT-1)	pIC50 [1, 2]	pIC50 ([1]; Jurkat)
Cn1ncc2cccc(NS(=O)(=O)c3cnn(-c4cc(N5CCC5)ccn4)c3)c21 [Compound I-248, 1-(4-(azetidin-1-yl)pyridin-2-yl)-N-(1-methyl-1H-indazol-7-yl)-1H-pyrazole-4-sulfonamide]	< 5.60		> 6.40
Cn1ncc2cccc(NS(=O)(=O)c3cnn(-c4cc(C5COC5)ccn4)c3)c21 [Compound I-264, N-(1-methylindazol-7-yl)-1-[4-(oxetan-3-yl)pyridin-2-yl]pyrazole-4-sulfonamide]	< 5.60	> 6.40	
Cn1ncc2cccc(NS(=O)(=O)c3cnn(-c4cc(C5CCO5)ccn4)c3)c21 (stereo not shown) [Compound I-265, N-(1-methylindazol-7-yl)-1-[4-(oxetan-2-yl)pyridin-2-yl]pyrazole-4-sulfonamide]	< 5.60	> 6.40	
COC[C@](C)(O)c1ccnc(-n2cc(S(=O)(=O)Nc3cccc4cnn(C)c34)cn2)c1 [Compound I-267]	< 5.60	> 6.40	
COCC(F)(F)c1ccnc(-n2cc(S(=O)(=O)Nc3cccc4cnn(C)c34)cn2)c1 [Compound I-268]	< 5.60	> 6.40	
C[C@@H](O)c1ccnc(-n2cc(S(=O)(=O)Nc3cccc4cnn(C)c34)cn2)c1 [Compound I-269]	< 5.60	> 6.40	
C[C@H](O)c1ccnc(-n2cc(S(=O)(=O)Nc3cccc4cnn(C)c34)cn2)c1 [Compound I-270]	< 5.60	> 6.40	
Cn1ncc2cccc(NS(=O)(=O)c3cnn(-c4cc([C@]5(O)C[C@@H](C)C5)ccn4)c3)c21 [Compound I-271, 1-(4-((1s,3s)-1-hydroxy-3-methylcyclobutyl)pyridin-2-yl)-N-(1-methyl-1H-indazol-7-yl)-1H-pyrazole-4-sulfonamide]	< 5.60	> 6.40	
COC[C@@](C)(O)c1ccnc(-n2cc(S(=O)(=O)Nc3cccc4cnn(C)c34)cn2)c1 [Compound I-275]	< 5.60	5.60 to 6.00	
CCC(O)(CC)c1ccnc(-n2cc(S(=O)(=O)Nc3cccc4cnn(C)c34)cn2)c1 [Compound I-276]	< 5.60	> 6.40	
CC[C@@H](O)c1ccnc(-n2cc(S(=O)(=O)Nc3cccc4cnn(C)c34)cn2)c1 [Compound I-278, (R)-1-(4-(1-hydroxypropyl)pyridin-2-yl)-N-(1-methyl-1H-indazol-7-yl)-1H-pyrazole-4-sulfonamide]	< 5.60	> 6.40	
Cn1ncc2cccc(NS(=O)(=O)c3cnn(-c4cc(N5CCOC5=O)ccn4)c3)c21 [Compound I-282, N-(1-methyl-1H-indazol-7-yl)-1-(4-(2-oxooxazolidin-3-yl)pyridin-2-yl)-1H-pyrazole-4-sulfonamide]	< 5.60	> 6.40	
Cn1ncc2cccc(NS(=O)(=O)c3cnn(-c4cc(N5CC(C)(C)OC5=O)ccn4)c3)c21 [Compound I-283]	< 5.60	> 6.40	
Cn1ncc2cccc(NS(=O)(=O)c3cnn(-c4cc(N5CCCC5=O)ccn4)c3)c21 [Compound I-284]	< 5.60	> 6.40	
Cn1ncc2cccc(NS(=O)(=O)c3cnn(-c4cc(N5CC(C)(C)NC5=O)ccn4)c3)c21 [Compound I-285, 1-(4-(4,4-Dimethyl-2-Oxoimidazolidin-1-yl)Pyridin-2-yl)-N-(1-Methyl-1H-Indazol-7-yl)-1H-Pyrazole-4-Sulfonamide]	< 5.60	6.00 to 6.40	
CC(=O)N1CC(O)(c2ccnc(-n3cc(S(=O)(=O)Nc4cccc5cnn(C)c45)cn3)c2)C1 [Compound I-287]	< 5.60	< 5.60	

Continued, in another order:

pIC50 (Avi-tagged FL MALT-1)	pIC50 [1, 2]	Structure (SMILES)	pIC50 ([1]; Jurkat)
< 5.60	> 6.40	Cn1ncc2cccc(NS(=O)(=O)c3cnn(-c4cc(N5CCCC5)ccn4)c3)c21 [Compound I-249, N-(1-methyl-1H-indazol-7-yl)-1-(4-(pyrrolidin-1-yl)pyridin-2-yl)-1H-pyrazole-4-sulfonamide]	
< 5.60	> 6.40	Cn1ncc2cccc(NS(=O)(=O)c3cnn(-c4cc(N5CCCCC5)ccn4)c3)c21 [Compound I-250, N-(1-methyl-1H-indazol-7-yl)-1-(4-(piperidin-1-yl)pyridin-2-yl)-1H-pyrazole-4-sulfonamide]	
< 5.60	> 6.40	CN1CC(F)(c2ccnc(-n3cc(S(=O)(=O)Nc4cccc5cnn(C)c45)cn3)c2)C1 [Compound I-251, 1-(4-(3-fluoro-1-methylazetidin-3-yl)pyridin-2-yl)-N-(1-methyl-1H-indazol-7-yl)-1H-pyrazole-4-sulfonamide]	
< 5.60	> 6.40	COC1(c2ccnc(-n3cc(S(=O)(=O)Nc4cccc5cnn(C)c45)cn3)c2)CN(C)C1 [Compound I-252]	
< 5.60	6.00 to 6.40	CC(=O)N1CC(F)(c2ccnc(-n3cc(S(=O)(=O)Nc4cccc5cnn(C)c45)cn3)c2)C1 [Compound I-253, 1-(4-(1-acetyl-3-fluoroazetidin-3-yl)pyridin-2-yl)-N-(1-methyl-1H-indazol-7-yl)-1H-pyrazole-4-sulfonamide]	
< 5.60	5.60 to 6.00	COC1(c2ccnc(-n3cc(S(=O)(=O)Nc4cccc5cnn(C)c45)cn3)c2)CN(C(C)=O)C1 [Compound I-254]	
< 5.60	> 6.40	Cc1n[nH]c2cccc(NS(=O)(=O)c3cnn(-c4cc(C5(O)CCC5)ccn4)c3)c12 [Compound I-255, 1-[4-(1-hydroxycyclobutyl)pyridin-2-yl]-N-(3-methyl-1H-indazol-4-yl)pyrazole-4-sulfonamide]	
< 5.60	> 6.40	Cn1ncc2cccc(NS(=O)(=O)c3cnn(-c4cc(C5(O)CCCCC5)ccn4)c3)c21 [Compound I-256, 1-[4-(1-hydroxycyclohexyl)pyridin-2-yl]-N-(1-methylindazol-7-yl)pyrazole-4-sulfonamide]	
< 5.60	5.60 to 6.00	COCC(O)(COC)c1ccnc(-n2cc(S(=O)(=O)Nc3cccc4cnn(C)c34)cn2)c1 [Compound I-257, 1-(4-(2-Hydroxy-1,3-Dimethoxypropan-2-yl)Pyridin-2-yl)-N-(1-Methyl-1H-Indazol-7-yl)-1H-Pyrazole-4-Sulfonamide]	
≥ 6.40	> 6.40	COc1ccc2cnn(C)c2c1NS(=O)(=O)c1cnn(-c2cc(C(C)(C)OC)ccn2)c1 [Compound I-258, N-(6-methoxy-1-methyl-1H-indazol-7-yl)-1-(4-(2-methoxypropan-2-yl)pyridin-2-yl)-1H-pyrazole-4-sulfonamide]	
< 5.60	5.60 to 6.00	COCC(COC)(OC)c1ccnc(-n2cc(S(=O)(=O)Nc3cccc4cnn(C)c34)cn2)c1 [Compound I-259, N-(1-methyl-1H-indazol-7-yl)-1-(4-(1,2,3-trimethoxypropan-2-yl)pyridin-2-yl)-1H-pyrazole-4-sulfonamide]	
6.00 to 6.40	6.00 to 6.40	COc1ncc2cnn(C)c2c1NS(=O)(=O)c1cnn(-c2cc(C(C)(C)O)ccn2)c1 [Compound I-260, 1-(4-(2-hydroxypropan-2-yl)pyridin-2-yl)-N-(6-methoxy-1-methyl-1H-pyrazolo[4,3-c]pyridin-7-yl)-1H-pyrazole-4-sulfonamide]	
≥ 6.40	> 6.40	COc1ncc2cnn(C)c2c1NS(=O)(=O)c1cnn(-c2cc(C(C)(C)OC)ccn2)c1 [Compound I-261, N-(6-Methoxy-1-Methyl-1H-Pyrazolo[4,3-C]Pyridin-7-yl)-1-(4-(2-Methoxypropan-2-yl)Pyridin-2-yl)-1H-Pyrazole-4-Sulfonamide]	
6.00 to 6.40	> 6.40	COc1ccc2cnn(C)c2c1NS(=O)(=O)c1cnn(-c2cc(C3COC3)ccn2)c1 [Compound I-262, N-(6-methoxy-1-methyl-1H-indazol-7-yl)-1-(4-(oxetan-3-yl)pyridin-2-yl)-1H-pyrazole-4-sulfonamide]	
6.00 to 6.40	> 6.40	COc1ccc2cnn(C)c2c1NS(=O)(=O)c1cnn(-c2cc(C3CCO3)ccn2)c1 (stereo not shown) [Compound I-263, N-(6-methoxy-1-methyl-1H-indazol-7-yl)-1-(4-(oxetan-2-yl)pyridin-2-yl)-1H-pyrazole-4-sulfonamide]	
≥ 6.40	> 6.40	COc1ccc2cnn(C)c2c1NS(=O)(=O)c1cnn(-c2cc(C(F)(F)F)n(C)n2)c1 [Compound I-266, N-(6-methoxy-1-methyl-1H-indazol-7-yl)-1′-methyl-5′-(trifluoromethyl)-1′H-[1,3′-bipyrazole]-4-sulfonamide]	
≥ 6.40	> 6.40	CCc1ccc2cnn(C)c2c1NS(=O)(=O)c1cnn(-c2cc(C(C)(C)O)ccn2)c1 [Compound I-274, N-(6-ethyl-1-methyl-1H-indazol-7-yl)-1-(4-(2-hydroxypropan-2-yl)pyridin-2-yl)-1H-pyrazole-4-sulfonamide]	
6.00 to 6.40	6.00 to 6.40	CCC(O)(CC)c1ccnc(-n2cc(S(=O)(=O)Nc3c(OC)ccc4cnn(C)c34)cn2)c1 [Compound I-279, 1-[4-(3-hydroxypentan-3-yl)pyridin-2-yl]-N-(6-methoxy-1-methylindazol-7-yl)pyrazole-4-sulfonamide]	
≥ 6.40	6.00 to 6.40	COc1ncc2cnn(C)c2c1NS(=O)(=O)c1cnn(-c2cc(C(F)(F)F)n(C)n2)c1 [Compound I-286, N-(6-methoxy-1-methyl-1H-pyrazolo[4,3-c]pyridin-7-yl)-1′-methyl-5′-(trifluoromethyl)-1′H-[1,3′-bipyrazole]-4-sulfonamide]	
